The numbers were not newly measured in patent US20070031367A1, “Composition and method for neck skin firming” (priority 2004, published 2007), which cites them from elsewhere.

For `COc1cc(CNC(=O)CCCC/C=C/C(C)C)ccc1O` [Capsaicin, N-canillyl-8-methyl-6-(E)-noneamide], the “Solubility in fats, oils and alcohol” value (fats, oils and alcohol) is “very soluble”. The Solubility in water entry (water) is “sparingly soluble”.
